pIC50: −log10 of the molar value.
Biological target: Nanoluciferase-BRD9 fusion protein (3×FLAG-NLuc-BRD9) in SYO-1 cells (Homo sapiens (Human), UniProt Q9H8M2)
Assay: SYO1 BRD9 NanoLuc degradation assay
Type: cell-based
Summary of the method: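 Degradation read as loss of NLuc signal after 6 h compound exposure (1 μM top final, 3-fold steps, 10 points, duplicates) in SYO-1 cells stably carrying 3×FLAG-NLuc-BRD9. Signal normalised between DMSO-treated cells and cells given 1 μM of a known BRD9 degrader.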

Nanoluciferase-BRD9 fusion protein (3×FLAG-NLuc-BRD9) in SYO-1 cells, sequence (Q9H8M2 whole entry, the tested form may be a part): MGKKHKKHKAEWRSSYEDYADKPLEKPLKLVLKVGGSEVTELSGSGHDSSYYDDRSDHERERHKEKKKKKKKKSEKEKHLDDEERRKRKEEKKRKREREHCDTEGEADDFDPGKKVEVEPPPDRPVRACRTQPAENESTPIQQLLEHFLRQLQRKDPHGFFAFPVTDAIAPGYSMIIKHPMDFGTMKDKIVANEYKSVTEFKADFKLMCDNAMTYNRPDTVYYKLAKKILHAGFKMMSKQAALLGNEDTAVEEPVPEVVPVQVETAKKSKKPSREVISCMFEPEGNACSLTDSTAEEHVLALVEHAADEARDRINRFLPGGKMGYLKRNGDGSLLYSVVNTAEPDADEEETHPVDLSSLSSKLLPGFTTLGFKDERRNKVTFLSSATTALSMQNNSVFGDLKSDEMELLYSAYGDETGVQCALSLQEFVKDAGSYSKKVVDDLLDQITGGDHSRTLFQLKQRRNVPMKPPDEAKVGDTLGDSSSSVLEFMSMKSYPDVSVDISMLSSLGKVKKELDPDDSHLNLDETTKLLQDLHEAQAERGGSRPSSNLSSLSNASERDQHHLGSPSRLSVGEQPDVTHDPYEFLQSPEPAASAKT

Row | SMILES | pIC50 (SYO-1 cells, 6 hours, Table 6C) | pIC50 (SYO-1 cells expressing 3×FLAG-NLuc-BRD9, 6 hours incubation, top dose 1 μM)
1 | [2H]C([2H])([2H])n1cc(-c2cc(OC)c(CN3CCN(CCC4CCN(c5ccc6c(c5)C(=O)N(C5CCC(=O)NC5=O)C6=O)CC4)CC3)c(OC)c2)c2c(c1=O)CN(C(=O)NCC(F)F)CC2 (stereo not shown) [Compound D328] | ≤ 6.00 | 
2 | CNC(=O)N1CCc2c(-c3cc(OC)c(C4CN(c5ccc6c(c5)CN(C5CCC(=O)NC5=O)C6=O)C4)c(OC)c3)cn(C)c(=O)c2C1 (stereo not shown) [Compound D331] | ≤ 8.00 | 
3 | CNC(=O)N1CCc2c(-c3cc(OC)c(CN4CCN(CCC5CCN(c6ccc7c(c6)C(=O)N(C6CCC(=O)NC6=O)C7=O)CC5)CC4)c(OC)c3)c(C)n(C)c(=O)c2C1 (stereo not shown) [Compound D337] | ≤ 6.00 | 
4 | CNC(=O)N1CCc2c(-c3cc(OC)c(CN4CCC(C(N5CCC6(CC5)CC(Oc5ccc7c(c5)C(=O)N(C5CCC(=O)NC5=O)C7=O)C6)C(F)(F)F)CC4)c(OC)c3)cn(C)c(=O)c2C1 (stereo not shown) [Compound D343] | ≤ 6.00 | 
5 | COc1cc(-c2cn(C)c(=O)c3c2CCC3)cc(OC)c1CN1CCN(CCC2CCN(c3ccc4c(c3)C(=O)N(C3CCC(=O)NC3=O)C4)CC2)CC1 (stereo not shown) [Compound D348] | > 8.00 | 
6 | COc1cc(-c2cn(C)c(=O)c3c2CN(C(=O)F)CC3)cc(OC)c1CN1CC(CN2CCC3(CC2)CN(c2ccc4c(c2)C(=O)N(C2CCC(=O)NC2=O)C4)C3)C1 (stereo not shown) [Compound D349] | ≤ 8.00 | 
7 | COc1cc(-c2cn(C)c(=O)c3c2NCC3)cc(OC)c1CN1CC(CN2CCC3(CC2)CN(c2ccc4c(c2)C(=O)N(C2CCC(=O)NC2=O)C4)C3)C1 (stereo not shown) [Compound D350] | > 8.00 | 
8 | COc1cc(-c2cn(C)c(=O)c3c2CCCN3)cc(OC)c1CN1CCC2(CC1)CN(c1ccc3c(c1)C(=O)N(C1CCC(=O)NC1=O)C3=O)C2 (stereo not shown) [Compound D351] | ≤ 8.00 | 
9 | COc1cc(-c2cn(C)c(=O)c3c2N(C)CC3)cc(OC)c1CN1CC(CN2CCC3(CC2)CN(c2ccc4c(c2)C(=O)N(C2CCC(=O)NC2=O)C4)C3)C1 (stereo not shown) [Compound D352] | ≤ 8.00 | 
10 | COc1cc(-c2cn(C)c(=O)c3c2CCC3)cc(OC)c1CN1CCC(CN2CCC3(CC2)CN(c2ccc4c(c2)C(=O)N(C2CCC(=O)NC2=O)C4)C3)CC1 (stereo not shown) [Compound D353] | > 8.00 | 
11 | COc1cc(-c2cn(C)c(=O)c3c2CCC(=O)N3)cc(OC)c1CN1CCC(CN2CCC3(CC2)CC(Oc2ccc4c(c2)CN(C2CCC(=O)NC2=O)C4=O)C3)CC1 (stereo not shown) [Compound D354] | > 8.00 | 
12 | COc1cc(-c2cn(C)c(=O)c3c2CCC3)cc(OC)c1CN1CCC2(CC1)CN(c1ccc3c(c1)C(=O)N(C1CCC(=O)NC1=O)C3)C2 (stereo not shown) [Compound D356] | > 8.00 | 
13 | COc1cc(-c2cn(C)c(=O)c3c2COC3)cc(OC)c1CN1CCC2(CC1)CN(c1ccc3c(c1)C(=O)N(C1CCC(=O)NC1=O)C3)C2 (stereo not shown) [Compound D357] | > 8.00 | 
14 | COc1cc(-c2cn(C)c(=O)c3c2COC3)cc(OC)c1CN1CCC2(CC1)CN(c1ccc3c(c1)C(=O)N(C1CCC(=O)NC1=O)C3=O)C2 (stereo not shown) [Compound D358] | > 8.00 | 
15 | COc1cc(-c2cn(C)c(=O)c3c2COC3)cc(OC)c1CN1CCC2(CC1)CN(c1ccc3c(c1)CN(C1CCC(=O)NC1=O)C3=O)C2 (stereo not shown) [Compound D359] | > 8.00 | 
16 | COc1cc(-c2cn(C)c(=O)c3c2CCCN3)cc(OC)c1CN1CCC2(CC1)CN(c1ccc3c(c1)CN(C1CCC(=O)NC1=O)C3=O)C2 (stereo not shown) [Compound D360] | > 8.00 | 

Row | SMILES | pIC50 (SYO-1 cells, 6 hours, Table 6C) | pIC50 (SYO-1 cells expressing 3×FLAG-NLuc-BRD9, 6 hours incubation, top dose 1 μM)
17 | COc1cc(-c2cn(C)c(=O)c3c2CCCN3)cc(OC)c1CN1CCC2(CC1)CN(c1ccc3c(c1)C(=O)N(C1CCC(=O)NC1=O)C3)C2 (stereo not shown) [Compound D361] | > 8.00 | 
18 | COc1cc(-c2cn(C)c(=O)c3c2CCC3)cc(OC)c1CN1CC(Oc2ccc3c(c2)C(=O)N(C2CCC(=O)NC2=O)C3=O)C1 (stereo not shown) [Compound D362] | > 8.00 | 
19 | COc1cc(-c2cn(C)c(=O)c3c2CCC3)cc(OC)c1CN1CCC2(CC1)CN(c1ccc3c(c1)C(=O)N(C1CCC(=O)NC1=O)C3=O)C2 (stereo not shown) [Compound D363] | > 8.00 | 
20 | COc1cc(-c2cn(C)c(=O)c3c2CCC3)cc(OC)c1CN1CCN(c2ccc3c(c2)C(=O)N(C2CCC(=O)NC2=O)C3)CC1 (stereo not shown) [Compound D364] | > 8.00 | 
21 | COc1cc(-c2cn(C)c(=O)c3c2CCC3)cc(OC)c1CN1CC(C#Cc2ccc3c(c2)C(=O)N(C2CCC(=O)NC2=O)C3)C1 (stereo not shown) [Compound D365] | > 8.00 | 
22 | COc1cc(-c2cn(C)c(=O)c3c2CCC3)cc(OC)c1CN1CCN(c2ccc3c(c2)C(=O)N(C2CCC(=O)NC2=O)C3=O)CC1 (stereo not shown) [Compound D366] | > 8.00 | 
23 | COc1cc(-c2cn(C)c(=O)c3c2COC3)cc(OC)c1CN1CC(C#Cc2ccc3c(c2)C(=O)N(C2CCC(=O)NC2=O)C3)C1 (stereo not shown) [Compound D367] | > 8.00 | 
24 | COc1cc(-c2cn(C)c(=O)c3c2COC3)cc(OC)c1CN1CC(C#Cc2ccc3c(c2)CN(C2CCC(=O)NC2=O)C3=O)C1 (stereo not shown) [Compound D368] | > 8.00 | 
25 | COc1cc(-c2cn(C)c(=O)c3c2CCC3)cc(OC)c1CN1CC(C#Cc2ccc3c(c2)CN(C2CCC(=O)NC2=O)C3=O)C1 (stereo not shown) [Compound D369] | > 8.00 | 
26 | COc1cc(-c2cn(C)c(=O)c3c2COC3)cc(OC)c1CN1CCC(C#Cc2ccc3c(c2)C(=O)N(C2CCC(=O)NC2=O)C3)CC1 (stereo not shown) [Compound D370] | > 8.00 | 
27 | COc1cc(-c2cn(C)c(=O)c3c2CCC3)cc(OC)c1CN1CCC(C#Cc2ccc3c(c2)C(=O)N(C2CCC(=O)NC2=O)C3)CC1 (stereo not shown) [Compound D371] | > 8.00 | 
28 | COc1cc(-c2cn(C)c(=O)c3c2COC3)cc(OC)c1CN1CCC(CN2CCC3(CC2)CN(c2ccc4c(c2)C(=O)N(C2CCC(=O)NC2=O)C4)C3)CC1 (stereo not shown) [Compound D372] | > 8.00 | 
29 | COc1cc(-c2cn(C)c(=O)c3c2COC3)cc(OC)c1CN1CCN(c2ccc3c(c2)C(=O)N(C2CCC(=O)NC2=O)C3=O)CC1 (stereo not shown) [Compound D373] | > 8.00 | 
30 | COc1cc(-c2cn(C)c(=O)c3c2CCC3)cc(OC)c1-c1ccc2c(c1)C(=O)N(C1CCC(=O)NC1=O)C2 (stereo not shown) [Compound D374] | > 8.00 | 
31 | COc1cc(-c2cn(C)c(=O)c3c2CCC3)cc(OC)c1CN1CCC2(CC1)CN(c1cccc(N3CCC(=O)NC3=O)c1)C2 [Compound D375] | ≤ 6.00 | 
32 | CNC(=O)N1CCc2c(-c3cc(OC)c(CN4CCN(CCC5CCN(c6c(F)c(F)c7c(c6F)C(=O)N(c6ccc(F)cc6F)C7=O)CC5)CC4)c(OC)c3)cn(C)c(=O)c2C1 [DD1] |  | > 8.00

The remaining lines, values ahead:

Row | pIC50 (SYO-1 cells, 6 hours, Table 6C) | pIC50 (SYO-1 cells expressing 3×FLAG-NLuc-BRD9, 6 hours incubation, top dose 1 μM) | SMILES
33 | > 8.00 |  | CNC(=O)N1CCc2c(-c3cc(OC)c(CN4[C@H](C)CN(CCC5CCN(c6ccc7c(c6)C(=O)N(C6CCC(=O)NC6=O)C7)CC5)C[C@H]4C)c(OC)c3)cn(C)c(=O)c2C1 (stereo partly shown) [Compound D326]
34 | > 8.00 |  | CCc1cc(-c2cn(C)c(=O)c3c2CCN(C(=O)NC)C3)cc(OC)c1CN1CCN(CCC2CCN(c3ccc4c(c3)C(=O)N(C3CCC(=O)NC3=O)C4)CC2)CC1 (stereo not shown) [Compound D327]
35 | > 8.00 |  | CNC(=O)N1CCc2c(-c3cc(OC)c(CN4CCN(CCC5CCN(c6ccc7c(c6)CN(C6CCC(=O)NC6=O)C7=O)CC5)CC4COC)c(OC)c3)cn(C)c(=O)c2C1 (stereo not shown) [Compound D329]
36 | > 8.00 |  | CNC(=O)N1CCc2c(-c3cc(OC)c(CN4CCN(CCC5CCN(c6ccc7c(c6)CN(C6CCC(=O)NC6=O)C7=O)CC5(F)F)CC4)c(OC)c3)cn(C)c(=O)c2C1 (stereo not shown) [Compound D330]
37 | > 8.00 |  | CNC(=O)N1CCc2c(-c3cc(OC)c(CN4CCN(CCC5CCN(c6ccc7c(c6)C(=O)N(C6CCC(=O)NC6=O)C7)CC5)CC45CCC5)c(OC)c3)cn(C)c(=O)c2C1 (stereo not shown) [Compound D332]
38 | > 8.00 |  | COc1cc(-c2cn(C)c(=O)c3c2CCN(C(=O)NCC(F)F)C3)cc(OC)c1CN1CCN(CCC2CCN(c3ccc4c(c3)C(=O)N(C3CCC(=O)NC3=O)C4)CC2)CC12CCC2 (stereo not shown) [Compound D333]
39 | > 8.00 |  | CNC(=O)N1CCc2c(-c3cc(OC)c(CN4CC(C(N5CCC6(CC5)CN(c5ccc7c(c5)C(=O)N(C5CCC(=O)NC5=O)C7)C6)C(F)(F)F)C4)c(OC)c3)cn(C)c(=O)c2C1 (stereo not shown) [Compound D334]
40 | > 8.00 |  | COc1cc(-c2cn(C)c(=O)c3c2CCN(C(=O)NCC(F)F)C3)cc(OC)c1CN1CCC(CN2CCC3(CC2)CN(c2ccc4c(c2)C(=O)N(C2CCC(=O)NC2=O)C4)C3)CC1 (stereo not shown) [Compound D336]
41 | > 8.00 |  | CNC(=O)N1CCc2c(-c3cc(OC)c(CN4CCC(CN5CCC6(CC5)CC(Oc5ccc7c(c5)C(=O)N(C5CCC(=O)NC5=O)C7=O)C6)CC4)c(OC)c3)cn(C(F)F)c(=O)c2C1 (stereo not shown) [Compound D338]
42 | > 8.00 |  | CNC(=O)N1CCc2c(-c3cc(OC)c(CN4CCC(CN5CCC6(CN(c7ccc8c(c7)CN(C7CCC(=O)NC7=O)C8=O)C6)C(F)(F)C5)CC4)c(OC)c3)cn(C)c(=O)c2C1 (stereo not shown) [Compound D339]
43 | > 8.00 |  | CNC(=O)N1CCc2c(-c3cc(OC)c(CN4CCN(CCC5CCN(c6ccc7c(c6)C(=O)N(C6CCC(=O)NC6=O)C7)CC5)CC4COC)c(OC)c3)cn(C)c(=O)c2C1 (stereo not shown) [Compound D340]
44 | > 8.00 |  | [2H]C([2H])([2H])NC(=O)N1CCc2c(-c3cc(OC)c(CN4CCN(CCC5CCN(c6ccc7c(c6)C(=O)N(C6CCC(=O)NC6=O)C7)CC5)CC4)c(OC)c3)cn(C)c(=O)c2C1 (stereo not shown) [Compound D341]
45 | > 8.00 |  | CNC(=O)N1CCc2c(-c3cc(OC)c(CN4CCC(CCN5C(C)CC(c6ccc7c(c6)C(=O)N(C6CCC(=O)NC6=O)C7=O)CC5C)CC4)c(OC)c3)cn(C)c(=O)c2C1 (stereo not shown) [Compound D342]
46 | > 8.00 |  | COc1cc(-c2cn(C)c(=O)c3c2CCN(C(=O)NCC(F)F)C3)cc(OC)c1CN1CCN(CCC2CCN(c3ccc4c(c3)C(=O)N(C3CCC(=O)NC3=O)C4)CC2)CC1 (stereo not shown) [Compound D344]
47 | > 8.00 |  | CNC(=O)N1CCc2c(-c3cc(OC)c(CN4CCC(C(N5CCC6(CC5)CC(Oc5ccc7c(c5)C(=O)N(C5CCC(=O)NC5=O)C7)C6)C(F)(F)F)CC4)c(OC)c3)cn(C)c(=O)c2C1 (stereo not shown) [Compound D345]
48 | > 8.00 |  | CNC(=O)N1CCc2c(-c3cc(OC)c(CN4CCN(CCC5CCN(c6ccc7c(c6)C(=O)N(C6CCC(=O)NC6=O)C7)CC5(F)F)CC4)c(OC)c3)cn(C)c(=O)c2C1 (stereo not shown) [Compound D346]
49 | > 8.00 |  | CNC(=O)N1CCc2c(-c3cc(OC)c(CN4CCC(CN5CCC6(CC5)CC(Oc5ccc7c(c5)C(=O)N(C5CCC(=O)NC5=O)C7=O)C6)CC4)c(OC)c3)cn(CF)c(=O)c2C1 (stereo not shown) [Compound D347]

— patent US12384776B2, “Compounds and uses thereof” (Foghorn Therapeutics Inc., priority 2019, dated 2025)
